# Test results published in publication PMC11219860, “A chemogenetic approach for dopamine imaging with tunable sensitivity” (Nature Communications, 2024).
# Experiments:
# DRD1-MSNs = experiment: Whole-cell electrophysiology of DRD1-MSNs in dorsal striatum brain slices; assay type: cell-based, mouse
# Method: For experiments involving SKF38393 application, to identify DRD1 receptor (DRD1)-positive neurons in the dorsal striatum, DRD1:cre mice injected with AAV5-hSyn-dlox-ChrimsonR-tdTomato were used. 3–4 weeks after viral injection, mice were anesthetized with 5% isoflurane and euthanized by decapitation. […] Slices were kept at 34 °C for 10–20 minutes and then at room temperature until recordings. In the recording chamber, slices were superfused with ACSF at 30–32 °C. Patch pipettes (3–7 MΩ) were pulled from borosilicate glass pipettes (GC150T-10, Harvard Apparatus). The internal solution contained (in mM): potassium gluconate 130, MgCl2 4, MgATP 3.4, Na3GTP 0.1, creatine phosphate 10, HEPES 5, and EGTA 1.1. The membrane potential was measured using EPC 10 USB Patch Clamp Amplifiers (HEKA). The access resistance was monitored by a hyperpolarizing step of −10 mV. The identification of DRD1-positive neurons was performed by the presence of red fluorescence protein and photo-evoked current or potential (@2 Hz, 10 ms duration, 2 pulses or 500 ms continuous pulse. light source: Colibri 7, Zeiss; 630 nm wavelength, 1 mW). To assess the excitability of neurons, positive currents were injected (0–500 pA) and the number of action potentials was counted at each current step. To measure input resistance, negative currents were injected (−200 to 0 pA, every 50 pA, 500 ms), as previously described. The resting membrane potential was measured at 0 pA current input.
# Action potentials were evoked by current injection (50–500 pA, 500 ms) in current-clamped neurons. Neurons were recorded from in the presence of picrotoxin (100 µM), CGP55485 (0.3 µM), DNQX (10 µM), and MK801 (10 µM) to block GABAA, GABAB, AMPA and NMDA receptors, respectively. DA (10 µM) was applied to brain slices in the presence of cocaine (5 µM) to prevent reuptake.
# [1] = tested on: dLight1.3b-expressing HEK293T sniffer cells on primary DArgic neurons; experiment: DA release imaging from cultured DArgic neurons with dLight1.3b sniffer cells; assay type: cell-based, mouse; conditions: 4-AP 250 µM in perfusion
# Method: Primary DA (DA) neurons were grown on a layer of cortical astrocytes. The astrocytes were first prepared from P0-P2 C57BL6 mice, grown in T75 flask and then seeded on collagen/poly-L-lysine coated 15 mm glass coverslips at a concentration of 100,000 cells/ml. The cells were allowed to grow until close to confluence before the seeding of neurons. Primary DArgic neurons were prepared and cultured from P0-P2 mouse pups using a previously described protocol. Briefly, the ventral midbrain of P0-P2 pups was dissected from DAT^IREScre x Ai9 mice in which DA neurons expressed the red fluorescent protein tdTomato. These were produced by crossing DAT^IREScre mice (catalog #006660, Jackson Labs[31]) to Ai9/tdTomato mice (catalog #007905, Jackson Labs[32]). Both of these lines were on a C57BL/6 J background. Midbrain cells were seeded at a concentration of 240,000 cells/ml on top of the astrocyte monolayer and allowed to grow for 10 days (10 DIV). Two days before imaging, expression of dLight1.3b was induced in stable HEK cells with doxycycline. One day prior to imaging, HEK cells were lifted using trypsin, and 150,000 HEK cells were seeded on top of 10 DIV-cultured neurons in doxycycline-supplemented neuronal medium. Imaging was performed on a confocal microscope (Nikon A1 HD25) using a 40X dry objective and a 488 nm laser to excite dLight1.3b and a 546 nm laser to activate tdTomato and identify DA neurons. On the day of imaging, physiological saline containing drugs at the specified concentration ([…], Sigma; SCH23390, Sigma; DETQ, Enamine) were applied on the culture using a computer-controlled perfusion system (Automate system). A field containing one or more DA neurons was selected based on the tdTomato signal. […]
# Event detection was performed using a thresholding algorithm adapted from[80]. In brief, the recorded field of view was divided into square ROIs of 55 um x 55 um size. […] A rolling standard deviation was calculated with the same window size. Events were defined as timepoints at which the fluorescence intensity reading exceeds the averaged intensity by 5 standard deviations.
# dLight1.3b = dLight1.3b (Homo sapiens, UniProt P21728); experiment: DA titrations on dLight1.3b-expressing HEK293 cells (confocal fluorescence imaging); assay type: cell-based; conditions: D1-PAM 5 μM
# Method: Cells were transfected at 50–60% confluency in glass-bottomed dishes (either individually or in 24-well plates) using the Effectene transfection kit (Qiagen) according to manufacturer instructions, and imaged 24–48 h after transfection. The Flp-In™ T-REx™ 293 cells (Thermo Fisher) with a stably integrated dLight1.3b cassette[48] were cultured as follows: the cells were cultured using HEK293T cell medium with the addition of Blasticidin (15 µg/ml) and Hygromycin B (200 µg/ml). To induce the expression of dLight1.3b, doxycycline (500 ng/ml) was added to the culture medium for 24–48 hours. Before imaging, cells were rinsed with 1 mL of Hank’s Balanced Salt Solution (HBSS, Life Technologies) supplemented with Ca^2+ (2 mM) and Mg^2+ (1 mM), and imaged at room temperature with a final HBSS volume of either 100 µL for each individual 1.5 cm glass bottom dish, or 500 µL for 24-well plates. Time-lapse imaging was performed on an inverted Zeiss LSM 800 confocal microscope using a 488 nm laser and a 40X oil-based objective. During imaging, ligands were added in bolus on the cells using a micropipette to reach the final specified concentrations of ligand over the cells. For quantification, except otherwise noted, regions of interest (ROI) were selected manually using the threshold function of Fiji to isolate the cell membrane. Sensor response (∆F/F) was calculated as the following: (F(t)-F_base)/F_base with F(t) being the ROI fluorescence value at each time point (t), and F_base being the mean fluorescence of the 10-time points immediately prior to ligand addition.
# human DRD1 (hmDRD1) = conditions: human clones; ref Hao et al., 2019; Wang et al., 2018; cited from earlier work
# msDRD1 = biological target: T1, msDRD1 (Mus musculus, UniProt Q61616); conditions: rodent (rat or mouse); ref Hao et al., 2019; Wang et al., 2018; cited from earlier work
# T1 construct: expressed in transfected cells; host or cells: HEK293T
# T1 sequence (Q61616 whole entry): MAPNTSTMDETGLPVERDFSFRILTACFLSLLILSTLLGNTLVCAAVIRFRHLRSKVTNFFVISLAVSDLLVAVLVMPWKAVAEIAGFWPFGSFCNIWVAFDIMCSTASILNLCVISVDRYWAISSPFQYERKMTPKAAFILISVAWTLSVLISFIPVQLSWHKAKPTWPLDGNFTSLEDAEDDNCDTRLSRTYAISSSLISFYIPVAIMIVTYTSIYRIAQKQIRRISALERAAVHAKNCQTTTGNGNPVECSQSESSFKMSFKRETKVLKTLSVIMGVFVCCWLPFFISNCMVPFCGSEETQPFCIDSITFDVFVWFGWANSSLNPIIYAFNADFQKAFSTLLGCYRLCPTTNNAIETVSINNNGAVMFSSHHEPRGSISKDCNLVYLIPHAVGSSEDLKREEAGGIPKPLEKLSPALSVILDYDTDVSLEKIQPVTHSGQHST
smiles,measurement,setting,value
"NCCc1ccc(O)c(O)c1 [DA, Dopamine]",number of action potentials evoked by current injection,DRD1-MSNs; DA 10 µM bath application vs control,increased the number of action potentials
"Nc1ccncc1 [4-AP, 4-aminopyridine]",DA release events,[1],larger localized DA release events started to become noticeable
Oc1cc2c(cc1O)C(c1ccccc1)CNCC2 (stereo not shown) [SKF38393],firing rate during current-injection of DRD1-MSNs,DRD1-MSNs; SKF38393 1 µM superfusion,significant increase
CC(C)(C)C1CCc2c(sc(NC(=O)c3ccncc3)c2C(N)=O)C1 (stereo not shown) [MLS6585],effect on the DA sensitivity of dLight1.3b,dLight1.3b,did not have a noticeable effect
"C[C@H]1c2cccc(CCC(C)(C)O)c2C[C@H](CO)N1C(=O)Cc1c(Cl)cccc1Cl [LY315207, 2-(2,6-Dichlorophenyl)-1-((1S,3R)-5-(3-hydroxy-3-methylbutyl)-3-(hydroxymethyl)-1-methyl-3,4-dihydroisoquinolin-2(1H)-yl)ethan-1-one]",maximal potentiation of dopamine,human DRD1 (hmDRD1),75-85%
same,partial potentiation of dopamine (% of max potentiation),msDRD1,45-53%
Cn1c2ccccc2c(=O)c2c(=O)n(-c3ccccc3)c(C3CCCCC3)nc21 [MLS1082],effect on the DA sensitivity of dLight1.3b,dLight1.3b,did not have a noticeable effect
